Measurements published in patent USRE47689E1, “Compounds for treating spinal muscular atrophy” (PTC Therapeutics, Inc., priority 2011, dated 2019).
Where two headings read alike, the source gives them in different places.

Assays:
[1] = test system: SMN2 minigene (full length SMN2 minigene mRNA containing SMN2 exon 7); experiment: SMN2 minigene mRNA splicing RT-qPCR assay in cultured cells; assay type: cell-based, human; conditions: Homo sapiens, HEK293-H, read-out: EC1.5x for production of full length SMN2 mRNA
How it was run: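 Full-length SMN2 minigene mRNA (exon 7 included), minigene-specific and not endogenous SMN, quantified by RT-qPCR multiplexed with GAPDH in stably transfected HEK293H cells after 24 h compound exposure at 37° C. Abundance from efficiency-corrected Ct, normalized to GAPDH and vehicle; EC1.5x reported as star bins.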

[2] = test system: Smn protein; experiment: Smn protein assay in cultured cells (SMN HTRF); assay type: cell-based, human; conditions: 48 hours; for EC1.5x (concentration giving 1.5-fold Smn protein increase): SMA Type 1 patient fibroblast cells (GM03813), 7-point concentration curve, SMN HTRF, concentration producing 1.5 times Smn protein vs DMSO vehicle control, read-out: EC1.5x for Smn protein expression; for maximum fold (Fold) increase of Smn protein: SMA patient fibroblast cells, 7-point concentration data, fold increase relative to vehicle control (SMN HTRF)
How it was run: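 Smn in SMA fibroblast lysates, measured by anti-SMN HTRF after 48 h compound exposure; EC1.5x from fold change over vehicle.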

[3] = HEK293H cells stably transfected with SMN2-A minigene, 24 hours, 7-point concentration curve, 1.5-fold relative to vehicle-treated cells

| melting point | SMILES | EC (1.5-fold) [1, 3] | EC1.5x (concentration giving 1.5-fold Smn protein increase) [2] | maximum fold (Fold) increase of Smn protein [2] | EC (1.5-fold) ([1]; 24 h) |
| --- | --- | --- | --- | --- | --- |
| 148 to 150 °C | Cc1cn2cc(-c3cc4ccc(N5CCCN(C)CC5)cc4oc3=O)cc2cn1 [Compound 589, 7-(4-methyl-1,4-diazepan-1-yl)-3-(3-methylpyrrolo[1,2-a]pyrazin-7-yl)-2H-chromen-2-one] | < 0.1 µM | < 300 nM | ***** (fold increase >1.65) |  |
| 230 to 235 °C | Cc1cn2cc(-c3cc4ccc(N5CCN(C6COC6)CC5)cc4oc3=O)nc2c(C)n1 [Compound 823, 3-(6,8-dimethylimidazo[1,2-a]pyrazin-2-yl)-7-[4-(oxetan-3-yl)piperazin-1-yl]-2H-chromen-2-one] | 0.3 to 1 µM | 1000 to 3000 nM | **** (fold increase between >1.5 and ≤1.65) |  |
| 200 to 202 °C | Cc1ccn2nc(-c3cc4ccc(N5C[C@@H](C)N[C@@H](C)C5)cc4oc3=O)cc2c1 [Compound 304, 7-[(3R,5S)-3,5-dimethylpiperazin-1-yl]-3-(5-methylpyrazolo[1,5-a]pyridin-2-yl)-2H-chromen-2-one] | 0.1 to 0.3 µM | 1000 to 3000 nM | *** (fold increase between >1.35 and ≤1.5) |  |
| 187 to 191 °C | Cc1cn2cc(-c3cc4ccc(CCCCN5CCNCC5)cc4oc3=O)nc2c(C)n1 [Compound 905, 3-(6,8-dimethylimidazo[1,2-a]pyrazin-2-yl)-7-[4-(piperazin-1-yl)butyl]-2H-chromen-2-one] | 1 to 3 µM | 1000 to 3000 nM | **** (fold increase between >1.5 and ≤1.65) |  |
| 188 to 190 °C | C[C@@H]1CN(c2ccc3cc(-c4cc5ccccn5n4)c(=O)oc3c2)C[C@H](C)N1 [Compound 189, 7-[(3R,5S)-3,5-dimethylpiperazin-1-yl]-3-(pyrazolo[1,5-a]pyridin-2-yl)-2H-chromen-2-one] | 1 to 3 µM |  | ** (fold increase between >1.2 and ≤1.35) |  |
| 180 to 184 °C | CNCCCCc1ccc2cc(-c3cn4cc(C)nc(C)c4n3)c(=O)oc2c1 [Compound 952, 3-(6,8-dimethylimidazo[1,2-a]pyrazin-2-yl)-7-[4-(methylamino)butyl]-2H-chromen-2-one] | < 0.1 µM | < 300 nM | ***** (fold increase >1.65) |  |
| 222 to 225 °C | Cc1cn2cc(-c3cc4ccc(N5CCC(NC6CCC6)CC5)cc4oc3=O)nc2c(C)n1 [Compound 924, 7-[4-(cyclobutylamino)piperidin-1-yl]-3-(6,8-dimethylimidazo[1,2-a]pyrazin-2-yl)-2H-chromen-2-one] | < 0.1 µM | < 300 nM | **** (fold increase between >1.5 and ≤1.65) |  |
| 291 to 293 °C | CCCN1CCN(c2ccc3cc(-c4cn5cccnc5n4)c(=O)oc3c2)CC1 [Compound 109, 3-(imidazo[1,2-a]pyrimidin-2-yl)-7-(4-propylpiperazin-1-yl)-2H-chromen-2-one] | 1 to 3 µM | 3000 to 10000 nM | *** (fold increase between >1.35 and ≤1.5) |  |
| 250 to 252 °C | O=c1oc2cc(N3CCNCC3)ccc2cc1-c1ccc2[nH]ncc2c1 [Compound 91, 3-(1H-indazol-5-yl)-7-(piperazin-1-yl)-2H-chromen-2-one] | 0.3 to 1 µM |  | ** (fold increase between >1.2 and ≤1.35) |  |
| 282 to 291 °C | Cc1cn2cc(-c3cc4ccc(N5C[C@H]6CCCN[C@H]6C5)cc4oc3=O)nc2cn1 [Compound 719, 3-(6-methylimidazo[1,2-a]pyrazin-2-yl)-7-[(4aR,7aR)-octahydro-6H-pyrrolo[3,4-b]pyridin-6-yl]-2H-chromen-2-one] | < 0.1 µM |  | ** (fold increase between >1.2 and ≤1.35) |  |
| 182 to 185 °C | Cc1csc2nc(-c3cc4ccc(N5CCCN(C)CC5)cc4oc3=O)cn12 [Compound 179, 7-(4-methyl-1,4-diazepan-1-yl)-3-(3-methylimidazo[2,1-b][1,3]thiazol-6-yl)-2H-chromen-2-one] | 1 to 3 µM |  | *** (fold increase between >1.35 and ≤1.5) |  |
| 127 to 131 °C | COc1ccc(-c2cc3ccc(N4CCN[C@@H](C)C4)cc3oc2=O)cc1C [Compound 542, 3-(4-methoxy-3-methylphenyl)-7-[(3S)-3-methylpiperazin-1-yl]-2H-chromen-2-one] | 1 to 3 µM |  | * (maximum fold increase of ≤1.2) |  |
| 184 to 186 °C | C[C@H]1CN(c2ccc3cc(-c4cn5cccc(Cl)c5n4)c(=O)oc3c2)CCN1C [Compound 339, 3-(8-chloroimidazo[1,2-a]pyridin-2-yl)-7-[(3S)-3,4-dimethylpiperazin-1-yl]-2H-chromen-2-one] | 0.1 to 0.3 µM |  | * (maximum fold increase of ≤1.2) |  |
| 220 to 230 °C | Cc1nccn2cc(-c3cc4ccc(O[C@@H]5CCNC5)cc4oc3=O)nc12 [Compound 610, 3-(8-methylimidazo[1,2-a]pyrazin-2-yl)-7-[(3R)-pyrrolidin-3-yloxy]-2H-chromen-2-one] | 0.3 to 1 µM |  | ** (fold increase between >1.2 and ≤1.35) |  |
| 216 to 218 °C | Cc1cn2cc(-c3cc4ccc(N5CCC(NC(C)C)CC5)cc4oc3=O)nc2c(C)n1 [Compound 923, 3-(6,8-dimethylimidazo[1,2-a]pyrazin-2-yl)-7-[4-(propan-2-ylamino)piperidin-1-yl]-2H-chromen-2-one] | < 0.1 µM | 300 to 1000 nM | *** (fold increase between >1.35 and ≤1.5) |  |
| 218 to 221 °C | Cc1cn2cc(-c3cc4ccc(N5CCN6CCCCC6C5)cc4oc3=O)cc2cn1 (stereo not drawn) [Compound 646, 3-(3-methylpyrrolo[1,2-a]pyrazin-7-yl)-7-(octahydro-2H-pyrido[1,2-a]pyrazin-2-yl)-2H-chromen-2-one] | < 0.1 µM | < 300 nM | **** (fold increase between >1.5 and ≤1.65) |  |
| 218 to 225 °C | CN1CCCN(c2ccc3cc(-c4nc(C(F)(F)F)cs4)c(=O)oc3c2)CC1 [Compound 238, 7-(4-methyl-1,4-diazepan-1-yl)-3-[4-(trifluoromethyl)-1,3-thiazol-2-yl]-2H-chromen-2-one] | 1 to 3 µM |  | * (maximum fold increase of ≤1.2) |  |

| SMILES | melting point | EC (1.5-fold) [1, 3] | EC1.5x (concentration giving 1.5-fold Smn protein increase) [2] | maximum fold (Fold) increase of Smn protein [2] | EC (1.5-fold) ([1]; 24 h) |
| --- | --- | --- | --- | --- | --- |
| Cc1nccc(-c2cc3ccc(N4CCNCC4)cc3oc2=O)n1.Cl [Cpd 274, 3-(2-methylpyrimidin-4-yl)-7-(piperazin-1-yl)-2H-chromen-2-one hydrochloride] | 200 °C (dec.) |  |  | ** (fold increase between >1.2 and ≤1.35) | 1 to 3 µM |
